Assay results as given in ChEMBL document CHEMBL5291721, “A preclinical secondary pharmacology resource illuminates target-adverse drug reaction associations of marketed drugs” (Nat Commun, 2023).

What was measured:
[1] = biological target: Neuronal acetylcholine receptor subunit alpha-4 (Homo sapiens, UniProt P43681)
[2] = biological target: T1, Equilibrative nucleoside transporter 1 (Homo sapiens, UniProt Q99808)
T1 sequence (Q99808 whole entry): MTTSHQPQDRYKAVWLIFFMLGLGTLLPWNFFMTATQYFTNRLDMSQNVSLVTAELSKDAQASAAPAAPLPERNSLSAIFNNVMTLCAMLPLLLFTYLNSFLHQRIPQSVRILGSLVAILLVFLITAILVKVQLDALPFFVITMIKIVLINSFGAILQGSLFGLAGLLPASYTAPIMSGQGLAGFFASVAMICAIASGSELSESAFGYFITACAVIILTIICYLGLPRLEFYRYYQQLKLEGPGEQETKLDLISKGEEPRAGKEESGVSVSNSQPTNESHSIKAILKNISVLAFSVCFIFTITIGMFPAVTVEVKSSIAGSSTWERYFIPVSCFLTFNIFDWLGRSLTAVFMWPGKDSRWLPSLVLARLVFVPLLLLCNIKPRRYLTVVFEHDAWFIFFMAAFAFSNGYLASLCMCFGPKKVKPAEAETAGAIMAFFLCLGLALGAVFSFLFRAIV

[3] = biological target: T2, 5-hydroxytryptamine receptor 1A (Homo sapiens, UniProt P08908); type: functional, cell-based
T2 sequence (P08908 whole entry): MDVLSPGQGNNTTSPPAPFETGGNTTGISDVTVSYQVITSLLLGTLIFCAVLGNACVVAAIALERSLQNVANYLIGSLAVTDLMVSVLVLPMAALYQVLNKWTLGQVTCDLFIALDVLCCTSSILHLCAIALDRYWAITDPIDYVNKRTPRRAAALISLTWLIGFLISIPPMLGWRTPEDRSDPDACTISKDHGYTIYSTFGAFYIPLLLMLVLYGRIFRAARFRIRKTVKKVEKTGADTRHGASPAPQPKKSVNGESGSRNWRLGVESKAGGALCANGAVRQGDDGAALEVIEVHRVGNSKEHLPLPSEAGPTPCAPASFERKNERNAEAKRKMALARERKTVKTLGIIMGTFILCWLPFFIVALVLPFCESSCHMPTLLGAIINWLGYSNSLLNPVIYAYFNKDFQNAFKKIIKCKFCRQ

[4] = biological target: Sodium-dependent serotonin transporter (Homo sapiens, UniProt P31645)
[5] = biological target: T3, Gamma-aminobutyric acid receptor subunit alpha-1 (Rattus norvegicus, UniProt P62813); type: functional
[6] = biological target: T4, Type-1 angiotensin II receptor (Homo sapiens, UniProt P30556)
T4 sequence (P30556 whole entry): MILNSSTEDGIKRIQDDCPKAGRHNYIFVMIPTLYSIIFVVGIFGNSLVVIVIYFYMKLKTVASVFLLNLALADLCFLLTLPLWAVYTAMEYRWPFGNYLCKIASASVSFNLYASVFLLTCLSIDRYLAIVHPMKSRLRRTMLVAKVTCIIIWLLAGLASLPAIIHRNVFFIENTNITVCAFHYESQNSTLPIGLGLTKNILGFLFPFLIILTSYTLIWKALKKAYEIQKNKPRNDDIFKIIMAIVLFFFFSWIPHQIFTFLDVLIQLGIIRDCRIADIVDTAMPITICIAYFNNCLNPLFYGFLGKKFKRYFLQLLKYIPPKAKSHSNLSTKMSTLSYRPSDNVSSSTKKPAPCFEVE

Histamine H1 receptor = Histamine H1 receptor (Homo sapiens, UniProt P35367)
Histamine H3 receptor = Histamine H3 receptor (Homo sapiens, UniProt Q9Y5N1)
[7] = biological target: Sodium-dependent noradrenaline transporter (Homo sapiens, UniProt P23975)
[8] = biological target: T5, Neuropeptide Y receptor type 1 (Homo sapiens, UniProt P25929)
T5 sequence (P25929 whole entry): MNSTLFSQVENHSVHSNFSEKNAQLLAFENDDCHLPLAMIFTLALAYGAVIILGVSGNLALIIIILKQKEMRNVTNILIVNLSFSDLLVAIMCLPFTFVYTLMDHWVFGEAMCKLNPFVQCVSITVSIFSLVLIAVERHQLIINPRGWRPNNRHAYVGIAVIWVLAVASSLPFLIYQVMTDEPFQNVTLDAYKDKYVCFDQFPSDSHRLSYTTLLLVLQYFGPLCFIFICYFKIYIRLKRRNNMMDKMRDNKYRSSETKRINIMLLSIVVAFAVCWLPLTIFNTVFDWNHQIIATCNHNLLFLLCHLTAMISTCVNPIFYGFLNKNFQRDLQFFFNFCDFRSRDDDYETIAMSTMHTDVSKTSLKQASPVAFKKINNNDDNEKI

[9] = biological target: Glutamate receptor ionotropic, NMDA 1 (Rattus norvegicus, UniProt P35439)
[10] = biological target: T3, Gamma-aminobutyric acid receptor subunit alpha-1
Motilin receptor = Motilin receptor (Homo sapiens, UniProt O43193)
[11] = biological target: T6, 5-hydroxytryptamine receptor 3A (Homo sapiens, UniProt P46098); type: functional
T6 sequence (P46098 whole entry): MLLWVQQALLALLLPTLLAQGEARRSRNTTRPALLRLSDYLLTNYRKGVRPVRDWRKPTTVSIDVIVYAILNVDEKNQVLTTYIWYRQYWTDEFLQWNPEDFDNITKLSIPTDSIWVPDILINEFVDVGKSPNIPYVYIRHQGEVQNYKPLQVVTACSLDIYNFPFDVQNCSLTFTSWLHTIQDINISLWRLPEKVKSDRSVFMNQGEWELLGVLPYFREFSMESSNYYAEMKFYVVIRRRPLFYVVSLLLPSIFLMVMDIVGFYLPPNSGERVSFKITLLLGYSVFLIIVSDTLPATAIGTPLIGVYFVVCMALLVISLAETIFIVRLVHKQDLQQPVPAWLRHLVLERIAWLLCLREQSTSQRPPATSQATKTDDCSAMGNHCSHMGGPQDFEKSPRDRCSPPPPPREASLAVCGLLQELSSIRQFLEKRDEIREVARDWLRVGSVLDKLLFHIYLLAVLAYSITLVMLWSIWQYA

Histamine H2 receptor = Histamine H2 receptor (Homo sapiens, UniProt P25021); type: functional, cell-based
D(3) dopamine receptor = D(3) dopamine receptor (Homo sapiens, UniProt P35462)
Also: assay procedure not described here.

Chain of Neuronal acetylcholine receptor subunit alpha-4 (P43681 whole entry): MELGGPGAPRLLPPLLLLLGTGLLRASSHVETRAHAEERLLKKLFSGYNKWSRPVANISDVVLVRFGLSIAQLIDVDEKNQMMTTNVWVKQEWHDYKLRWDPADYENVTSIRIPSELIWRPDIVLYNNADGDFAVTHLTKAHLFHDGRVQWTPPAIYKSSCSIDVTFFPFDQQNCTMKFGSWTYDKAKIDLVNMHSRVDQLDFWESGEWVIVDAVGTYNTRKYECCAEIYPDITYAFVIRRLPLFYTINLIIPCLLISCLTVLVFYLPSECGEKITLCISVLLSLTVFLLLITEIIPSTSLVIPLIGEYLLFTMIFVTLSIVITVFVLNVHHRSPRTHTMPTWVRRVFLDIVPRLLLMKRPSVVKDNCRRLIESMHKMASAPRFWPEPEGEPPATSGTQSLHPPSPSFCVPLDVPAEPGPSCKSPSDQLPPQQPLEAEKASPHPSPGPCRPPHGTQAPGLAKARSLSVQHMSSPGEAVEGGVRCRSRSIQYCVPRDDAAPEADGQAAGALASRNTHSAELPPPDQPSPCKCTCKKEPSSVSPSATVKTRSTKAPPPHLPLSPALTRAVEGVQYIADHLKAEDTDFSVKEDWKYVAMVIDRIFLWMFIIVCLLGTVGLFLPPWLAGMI
T3 sequence (P62813 whole entry): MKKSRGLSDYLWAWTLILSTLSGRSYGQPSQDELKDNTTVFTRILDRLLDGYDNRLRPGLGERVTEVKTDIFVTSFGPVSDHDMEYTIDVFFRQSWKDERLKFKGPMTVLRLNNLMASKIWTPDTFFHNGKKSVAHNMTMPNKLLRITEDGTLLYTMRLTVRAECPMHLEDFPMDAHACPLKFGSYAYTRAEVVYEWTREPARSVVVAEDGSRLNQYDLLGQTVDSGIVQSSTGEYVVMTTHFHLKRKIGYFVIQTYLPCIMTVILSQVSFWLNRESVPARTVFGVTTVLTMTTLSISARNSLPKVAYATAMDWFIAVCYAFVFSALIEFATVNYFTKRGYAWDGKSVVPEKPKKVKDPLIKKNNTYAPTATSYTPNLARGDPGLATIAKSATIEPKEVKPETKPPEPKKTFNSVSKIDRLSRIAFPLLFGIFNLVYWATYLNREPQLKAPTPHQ
Chain of Histamine H2 receptor (P25021 whole entry): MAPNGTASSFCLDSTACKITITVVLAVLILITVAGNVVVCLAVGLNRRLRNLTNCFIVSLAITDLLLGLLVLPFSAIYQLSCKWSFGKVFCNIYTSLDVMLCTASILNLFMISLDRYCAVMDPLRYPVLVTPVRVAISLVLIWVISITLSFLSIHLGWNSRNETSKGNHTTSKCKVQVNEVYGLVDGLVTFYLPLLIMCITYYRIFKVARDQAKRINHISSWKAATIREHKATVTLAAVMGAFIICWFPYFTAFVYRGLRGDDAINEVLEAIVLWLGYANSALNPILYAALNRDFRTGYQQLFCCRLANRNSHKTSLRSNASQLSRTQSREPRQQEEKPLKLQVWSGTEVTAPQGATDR
Chain of Motilin receptor (O43193 whole entry): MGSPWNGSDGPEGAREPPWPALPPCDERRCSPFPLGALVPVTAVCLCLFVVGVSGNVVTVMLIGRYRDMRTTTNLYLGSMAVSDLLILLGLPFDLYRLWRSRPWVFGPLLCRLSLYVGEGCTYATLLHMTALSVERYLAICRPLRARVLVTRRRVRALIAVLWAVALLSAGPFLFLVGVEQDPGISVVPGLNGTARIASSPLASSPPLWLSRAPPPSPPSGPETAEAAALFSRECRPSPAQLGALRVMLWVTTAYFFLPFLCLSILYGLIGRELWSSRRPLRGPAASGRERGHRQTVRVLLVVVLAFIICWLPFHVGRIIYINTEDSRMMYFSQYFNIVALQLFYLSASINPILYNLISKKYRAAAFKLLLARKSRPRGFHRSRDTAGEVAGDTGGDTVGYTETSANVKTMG
Chain of Sodium-dependent noradrenaline transporter (P23975 whole entry): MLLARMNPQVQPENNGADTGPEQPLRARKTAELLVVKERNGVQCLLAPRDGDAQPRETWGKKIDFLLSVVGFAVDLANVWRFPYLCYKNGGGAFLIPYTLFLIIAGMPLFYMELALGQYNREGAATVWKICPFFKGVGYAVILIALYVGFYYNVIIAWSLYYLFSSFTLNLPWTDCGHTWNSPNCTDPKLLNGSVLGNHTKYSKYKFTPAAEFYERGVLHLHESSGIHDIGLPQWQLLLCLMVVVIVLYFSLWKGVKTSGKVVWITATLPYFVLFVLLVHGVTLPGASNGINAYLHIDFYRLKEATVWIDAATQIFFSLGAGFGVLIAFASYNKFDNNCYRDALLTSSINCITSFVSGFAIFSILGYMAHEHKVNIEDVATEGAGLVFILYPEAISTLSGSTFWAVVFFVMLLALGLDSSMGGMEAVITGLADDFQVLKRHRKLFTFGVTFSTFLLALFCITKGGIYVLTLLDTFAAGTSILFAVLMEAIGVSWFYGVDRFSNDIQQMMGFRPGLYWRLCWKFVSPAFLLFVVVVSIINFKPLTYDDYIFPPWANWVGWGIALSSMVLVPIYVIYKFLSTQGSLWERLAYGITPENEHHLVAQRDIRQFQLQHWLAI
Chain of D(3) dopamine receptor (P35462 whole entry): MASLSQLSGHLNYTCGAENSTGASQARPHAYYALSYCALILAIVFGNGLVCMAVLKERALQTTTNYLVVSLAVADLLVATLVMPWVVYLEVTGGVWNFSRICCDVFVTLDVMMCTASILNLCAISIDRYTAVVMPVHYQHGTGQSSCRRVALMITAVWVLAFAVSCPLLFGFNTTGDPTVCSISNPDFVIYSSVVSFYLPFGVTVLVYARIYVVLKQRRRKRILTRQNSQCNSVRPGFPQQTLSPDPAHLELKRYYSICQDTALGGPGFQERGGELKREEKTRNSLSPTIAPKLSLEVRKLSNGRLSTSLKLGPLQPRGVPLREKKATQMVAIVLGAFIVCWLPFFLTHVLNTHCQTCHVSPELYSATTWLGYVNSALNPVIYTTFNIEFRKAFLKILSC
Chain of Histamine H1 receptor (P35367 whole entry): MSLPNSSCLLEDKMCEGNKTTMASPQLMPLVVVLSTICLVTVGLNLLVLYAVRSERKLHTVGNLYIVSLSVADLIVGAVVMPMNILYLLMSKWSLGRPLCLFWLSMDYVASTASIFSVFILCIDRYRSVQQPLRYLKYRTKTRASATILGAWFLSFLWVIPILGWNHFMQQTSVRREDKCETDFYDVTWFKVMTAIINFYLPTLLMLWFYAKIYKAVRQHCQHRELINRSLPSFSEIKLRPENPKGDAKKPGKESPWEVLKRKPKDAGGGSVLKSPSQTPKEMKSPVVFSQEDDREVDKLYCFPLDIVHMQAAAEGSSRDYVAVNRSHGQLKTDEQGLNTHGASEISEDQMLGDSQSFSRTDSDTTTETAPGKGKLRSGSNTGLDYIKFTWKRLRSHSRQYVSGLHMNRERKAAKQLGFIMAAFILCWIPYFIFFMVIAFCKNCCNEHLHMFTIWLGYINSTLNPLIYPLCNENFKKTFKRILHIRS
Chain of Sodium-dependent serotonin transporter (P31645 whole entry): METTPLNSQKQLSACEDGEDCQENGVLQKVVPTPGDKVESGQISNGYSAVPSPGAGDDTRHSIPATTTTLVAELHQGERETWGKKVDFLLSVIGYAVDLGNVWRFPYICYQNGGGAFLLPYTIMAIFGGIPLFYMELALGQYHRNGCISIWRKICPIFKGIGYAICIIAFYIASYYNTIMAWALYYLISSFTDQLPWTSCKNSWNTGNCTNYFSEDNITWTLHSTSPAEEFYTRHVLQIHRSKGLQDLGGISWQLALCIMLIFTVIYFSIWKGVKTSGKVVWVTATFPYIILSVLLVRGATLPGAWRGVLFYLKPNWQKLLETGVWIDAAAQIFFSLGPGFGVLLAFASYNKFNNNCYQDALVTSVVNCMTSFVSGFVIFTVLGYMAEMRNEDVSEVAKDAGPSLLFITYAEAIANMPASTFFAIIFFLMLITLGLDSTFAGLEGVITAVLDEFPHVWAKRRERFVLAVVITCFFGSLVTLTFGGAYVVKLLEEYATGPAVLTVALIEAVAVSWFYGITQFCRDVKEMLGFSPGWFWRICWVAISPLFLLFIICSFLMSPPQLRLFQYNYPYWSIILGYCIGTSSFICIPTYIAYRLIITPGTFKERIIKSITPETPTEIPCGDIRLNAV
Chain of Histamine H3 receptor (Q9Y5N1 whole entry): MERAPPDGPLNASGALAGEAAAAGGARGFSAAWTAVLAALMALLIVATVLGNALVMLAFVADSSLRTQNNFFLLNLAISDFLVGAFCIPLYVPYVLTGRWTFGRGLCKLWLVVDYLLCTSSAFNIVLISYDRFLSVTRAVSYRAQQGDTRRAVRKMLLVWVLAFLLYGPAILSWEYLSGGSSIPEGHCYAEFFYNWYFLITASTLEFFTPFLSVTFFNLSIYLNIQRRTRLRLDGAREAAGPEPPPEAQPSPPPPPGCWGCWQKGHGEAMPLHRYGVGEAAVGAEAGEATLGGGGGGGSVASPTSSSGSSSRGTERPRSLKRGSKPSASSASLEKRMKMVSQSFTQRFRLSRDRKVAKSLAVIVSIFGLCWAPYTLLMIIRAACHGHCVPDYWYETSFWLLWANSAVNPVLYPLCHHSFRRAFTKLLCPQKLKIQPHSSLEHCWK

Row | SMILES | AC50 [1] | AC50 [2] | AC50 [3] | AC50 [4] | AC50 [5] | AC50 [6] | AC50 (Histamine H1 receptor) | AC50 (Histamine H3 receptor) | AC50 [7] | AC50 [8] | AC50 [9] | AC50 [10] | AC50 (Motilin receptor) | AC50 [11] | AC50 (Histamine H2 receptor) | AC50 (D(3) dopamine receptor)
1 | N[C@H](Cc1cc(I)c(Oc2cc(I)c(O)c(I)c2)c(I)c1)C(=O)O [DEXTROTHYROXINE] | > 10 µM | > 30 µM | 8.2 µM | > 30 µM | > 10 µM | > 30 µM | > 10 µM | > 10 µM | > 30 µM | > 30 µM | > 10 µM | > 10 µM | > 10 µM | > 30 µM | > 10 µM | > 10 µM
2 | COC(=O)N[C@@H](C)CNc1nccc(-c2cn(C(C)C)nc2-c2cc(Cl)cc(NS(C)(=O)=O)c2F)n1 [ENCORAFENIB] | > 30 µM | 25.9 µM | > 30 µM | > 30 µM | 23.1 µM | > 30 µM | > 30 µM | > 30 µM | > 30 µM | > 30 µM | > 30 µM | > 30 µM | > 30 µM | > 30 µM | > 30 µM | > 30 µM
3 | Clc1ccc2c(c1)C(c1ccccc1)=NCc1nncn1-2 [ESTAZOLAM] | > 10 µM | > 30 µM | > 10 µM | > 30 µM | 0.0336 µM | > 30 µM | > 10 µM | > 10 µM | > 30 µM | > 30 µM | > 10 µM | > 10 µM | > 10 µM | > 30 µM | > 10 µM | > 30 µM
4 | Nc1nc(F)nc2c1ncn2[C@@H]1O[C@H](COP(=O)(O)O)[C@@H](O)[C@@H]1O [FLUDARABINE PHOSPHATE] | > 30 µM | > 30 µM | > 30 µM | > 30 µM | > 30 µM | > 30 µM | > 30 µM | > 30 µM | > 30 µM | > 30 µM | > 30 µM | > 30 µM | > 30 µM | > 30 µM | > 30 µM | > 30 µM
5 | O=C(O)c1ccccc1Nc1cccc(C(F)(F)F)c1 [FLUFENAMIC ACID] | > 10 µM | > 30 µM | 15 µM | > 30 µM | > 10 µM | > 30 µM | 0.082 µM | > 10 µM | > 30 µM | > 30 µM | > 10 µM | > 10 µM | > 10 µM | > 30 µM | > 10 µM | 3.5 µM
6 | CCCCCCOC(=O)CCC(=O)CN [HEXAMINOLEVULINATE] | > 30 µM | > 30 µM | > 30 µM | > 30 µM | > 30 µM | > 30 µM | > 30 µM | > 30 µM | > 30 µM | > 30 µM | > 30 µM | > 30 µM | > 30 µM | > 30 µM | > 30 µM | > 30 µM
7 | Cc1ccc(NC(=O)C2(c3ccc4c(c3)OC(F)(F)O4)CC2)nc1-c1cccc(C(=O)O)c1 [LUMACAFTOR] | > 30 µM | > 30 µM | > 30 µM | > 30 µM | > 30 µM | > 30 µM | > 30 µM | > 30 µM | > 30 µM | > 30 µM | > 30 µM | > 30 µM | > 30 µM | > 30 µM | > 30 µM | > 30 µM
8 | O=C1CN=C(c2ccccc2)c2cc(Cl)ccc2N1 [NORDAZEPAM] | > 10 µM | > 30 µM | > 10 µM | > 10 µM | 0.049 µM | > 30 µM | > 10 µM | > 10 µM | > 10 µM | > 30 µM | > 10 µM | > 10 µM | > 10 µM | > 10 µM | > 10 µM | > 10 µM
9 | O=C1Nc2ccc(Cl)cc2C(c2ccccc2)=NC1O (configuration not stated) [OXAZEPAM] | > 10 µM | > 30 µM | > 10 µM | > 10 µM | 0.03 µM | > 30 µM | > 10 µM | > 10 µM | > 10 µM | > 30 µM | > 10 µM | > 10 µM | > 10 µM | > 10 µM | > 10 µM | > 10 µM
10 | CC1(C)C(C=C(Cl)Cl)C1C(=O)OCc1cccc(Oc2ccccc2)c1 (configuration not stated) [PERMETHRIN] | > 10 µM | > 10 µM | > 10 µM | > 10 µM | > 10 µM | > 10 µM | > 10 µM | > 10 µM | > 10 µM | > 10 µM | > 10 µM | > 10 µM | > 10 µM | > 30 µM | > 10 µM | > 30 µM
11 | CC(=O)c1ccc2c(c1)N(CCCN1CCC(CCO)CC1)c1ccccc1S2 [PIPERACETAZINE] | > 30 µM | > 30 µM | 0.043 µM | 1.3 µM | > 30 µM | > 30 µM | 0.034 µM | > 30 µM | 1.8 µM | > 30 µM | > 30 µM | > 30 µM | > 30 µM | > 30 µM | > 30 µM | 0.017 µM
12 | Cc1ccc(=O)n(-c2ccccc2)c1 [PIRFENIDONE] | > 30 µM | > 30 µM | > 30 µM | > 30 µM | > 30 µM | > 30 µM | > 30 µM | > 30 µM | > 30 µM | > 30 µM | > 30 µM | > 30 µM | > 30 µM | > 30 µM | > 30 µM | > 30 µM
